The text below walks through data of patent publication US20100167311A1, “Oxidoreductases and Processes Utilising Such Enzymes” (priority 2006, published 2010).

Series [1] has as its target T1, type-1 site of NiR M150G (Alcaligenes faecalis, UniProt P38501, M186G).
T1 construct: His tag (C, cleaved yes); made in house
Briefly: biochemical. The format is binding, A. faecalis S-6. From the text:
Spectroscopy and assays—The spectrophotometer was a Perkin Elmer Instruments Lambda 800.

The target of a further series is T2, NiR M150G (Alcaligenes faecalis, UniProt P38501, M186G).
T2 construct: His tag (C, cleaved yes); made in house
T2 sequence (P38501 other isoform, or with tags, fused parts or gaps M186G): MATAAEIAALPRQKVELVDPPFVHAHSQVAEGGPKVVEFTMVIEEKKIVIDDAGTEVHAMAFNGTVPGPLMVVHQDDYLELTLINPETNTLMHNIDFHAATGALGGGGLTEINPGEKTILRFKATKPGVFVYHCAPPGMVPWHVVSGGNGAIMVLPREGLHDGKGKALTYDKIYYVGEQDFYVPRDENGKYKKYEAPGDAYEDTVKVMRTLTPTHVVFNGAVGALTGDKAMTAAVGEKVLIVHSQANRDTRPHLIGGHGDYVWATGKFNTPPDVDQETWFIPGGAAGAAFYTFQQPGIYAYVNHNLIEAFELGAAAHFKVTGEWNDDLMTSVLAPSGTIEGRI
Put plainly: Activity assay monitoring oxidation of pseudoazurin, NiR M150G with external ligands. Type of series: biochemical, A. faecalis S-6. The following applies: for effect of external ligand on catalytic activity of NiR M150G: in words; for kcat^sat of NiR M150G saturated with external ligand: pseudoazurin 275-325 μM, nitrite 5 mM, 50 mM Mops pH 7.0. The protocol: (§1) Activity assays were carried out by monitoring the oxidation of pseudoazurin as described (3). The concentrations of the electron donor pseudoazurin (275-325 μM) and the electron acceptor nitrite (5 mM) were saturating. The concentration of NiR was typically 1 nM. The buffer for activity assays was always 50 mM Mops pH 7.0. Whenever using volatile compounds, the cuvette was sealed with a PTFE stopper. All reported activities were calculated from initial rates. Apparent dissociation constants (KD^app) were obtained from a least-squares fit of activity (v) versus ligand concentration to v=v^NoLigand+Δv×[L]/(KD^app+[L]). The meaning of KD^app will be explained in the Discussion section.

For series [2], the target named is T1, type-1 site of NiR M150G. Type of series: binding, A. faecalis S-6. The following applies: versus NHE, NiR M150G with external ligand bound, interpreted as upper limit.
Experimental: Potentiometric titrations—Potentiometric titrations were carried out as described by Dutton (47) in a cuvette held at 298 K in 100 mM potassium phosphate pH 7.0. The NiR concentration was typically 40 mM. Diaminodurol (2,3,5,6-tetramethyl-1,4-phenylenediamine) was used as a redox mediator at 100-200 μM. Potassium ferricyanide and sodium dithionite were used to change the potential of the solution. Visible absorption and the potential of the solution were monitored until both were stable. Spectra were recorded in the range of 510-800 nm since diaminodurol gives negligible absorbance in this region.
The recorded spectra were integrated using a routine written in Igor Pro (WaveMetrics Inc.). For base line correction this routine approximated the scattering contributions (due to aggregated protein) either by a linear approximation or by a method described elsewhere (48). […] The integrated absorbance versus potential was fitted to the Nernst equation with the number of electrons held at one. […]
in which EM^NL is the reduction potential without ligand, [L] denotes the free ligand concentration, KD^ox and KD^red are the ligand dissociation constants from the oxidized and reduced type-1 site respectively, R is the gas constant, F is the Faraday constant and T is the absolute temperature. […] The midpoint potential of the type-1 site with the external ligand bound (EM^L) was calculated from equation 2. […]
Another series concerns the target T3, wt NiR (Alcaligenes faecalis, UniProt P38501).
T3 construct: His tag (C, cleaved yes); made in house
Briefly: Activity assay monitoring oxidation of pseudoazurin, wt NiR with external ligands. Type of series: biochemical, A. faecalis S-6. Conditions: for effect of external ligand on catalytic activity of wt NiR: in words. The protocol: as §1

Series [3] has as its target T4, pseudoazurin (UniProt P04377).
T4 sequence: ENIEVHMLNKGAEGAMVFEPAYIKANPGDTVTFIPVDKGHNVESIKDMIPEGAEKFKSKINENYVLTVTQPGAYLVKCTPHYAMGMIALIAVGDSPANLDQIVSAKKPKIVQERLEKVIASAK

The conditions of series [4]: in words; cited from earlier work.
The target of another series is T5, pseudoazurin, P04377.
T5 chain: T4 sequence

Series [5] has as its system pseudoazurin. Briefly: Catalytic activity of NiR variants with the physiological electron donor pseudoazurin and nitrite. The following applies: no external ligand; pseudoazurin 275-325 μM, nitrite 5 mM, 50 mM Mops pH 7.0. The format is biochemical, A. faecalis S-6. The method, then: as §1

T1 sequence (P38501 other isoform, or with tags, fused parts or gaps M186G): as the sequence (P38501 other isoform, or with tags, fused parts or gaps M186G) above

`Cc1cscn1` [4-methylthiazole]: binding on type-1 site of NiR M150G [1] was put at a Kd of 22 ± 3 mM.

For the molecule `CC(N)=O` [acetamide], the equilibrium dissociation constant (Kd) on type-1 site of NiR M150G [1] was determined as 71 ± 3 mM. On NiR M150G, the “effect of external ligand on catalytic activity of NiR M150G” value (from here on “effect of external ligand … of NiR M150G”) is on record as “restored the activity up to the level of wt NiR” and the “kcat^sat of NiR M150G saturated with external ligand” value (shortened to “kcat^sat of NiR M150G saturated”) amounted to 374 ± 28 s⁻¹. Besides, the “fitted reduction potential with ligand bound (EM^L)” value on type-1 site of NiR M150G [2] is on record as < 225 mV.

The molecule `CC#N` [acetonitrile] displayed an equilibrium dissociation constant (Kd) on type-1 site of NiR M150G [1] of 71.5 ± 7.3 mM. At NiR M150G, the “kcat^sat of NiR M150G saturated” value was >390^A s^−1. For the same molecule, the “increase of catalytic activity” value on wt NiR (wt NiR) was determined as 50%.

`CSC` [dimethylsulfide] displayed a Kd at type-1 site of NiR M150G [1] of 21 ± 4 mM. On NiR M150G, the affinity, expressed as Kd, was 34 ± 7 mM; the “effect of external ligand … of NiR M150G” value was “restored the activity up to the level of wt NiR”; the “kcat^sat of NiR M150G saturated” value was determined as 373 ± 22 s⁻¹.

`CCSC` [ethylmethylsulfide] yielded a dissociation constant Kd on type-1 site of NiR M150G [1] of 14 ± 6 mM. Moreover, on NiR M150G, the Kd is > 73 mM, the “effect of external ligand … of NiR M150G” value is given as “activity doubled” and the “kcat^sat of NiR M150G saturated” value is >292 s⁻¹. Besides, the “effect of external ligand on catalytic activity of wt NiR” value (shortened to “effect of external ligand … of wt NiR”) at wt NiR is reported as “constant activity”.

Turning to `NC=O` [formamide], at NiR M150G, the “effect of external ligand … of NiR M150G” value is “activity doubled” and the “kcat^sat of NiR M150G saturated” value was >255 s⁻¹. Besides, the “effect of external ligand … of wt NiR” value at wt NiR is on record as “constant activity”.

`c1c[nH]cn1` [imidazole] yielded a Kd at type-1 site of NiR M150G [1] of 52 ± 3 mM. Moreover, the “rate of slow spectral change (absorption at 430 nm versus time, single exponential)” value on type-1 site of NiR M150G [1] (NiR M150G with imidazole 260 mM, 25° C.) worked out at 0.823 ± 0.003 h⁻¹. Moreover, at NiR M150G, the “effect of external ligand … of NiR M150G” value is listed as “decreased in activity”. Also, the “effect of external ligand … of wt NiR” value on wt NiR is given as “decreased in activity”.

As for `c1ccncc1` [pyridine], the “fitted reduction potential with ligand bound (EM^L)” value at type-1 site of NiR M150G [2] is < 245 mV.

As to “nitrite reductase M150G from Alcaligenes faecalis S-6”, in the series with pseudoazurin [3], the kcat^sat (oxidation of pseudoazurin, no external ligand) came to 133 s⁻¹; the kcat^sat (oxidation of pseudoazurin, saturated with acetamide) was 374 s⁻¹; the kcat^sat (oxidation of pseudoazurin, saturated with dimethylsulfide) came to 373 s⁻¹; the “kcat^sat (oxidation of pseudoazurin, with acetonitrile)” value is >390^A. Besides, in the series with pseudoazurin [3], the kcat^sat (oxidation of pseudoazurin, with ethylmethylsulfide) is > 292 s⁻¹ and the kcat^sat (oxidation of pseudoazurin, with formamide) was > 255 s⁻¹.

For the molecule “nitrite reductase M150H from Alcaligenes faecalis S-6”, the kcat^sat (oxidation of pseudoazurin, no external ligand) with pseudoazurin [3] is 0.099 s⁻¹.

On to “nitrite reductase M150T from Alcaligenes faecalis S-6”, for which the kcat^sat (oxidation of pseudoazurin, no external ligand) with pseudoazurin [3] turned out to be 126 s⁻¹.

B1: Achromobacter cycloclastes NiR M150Q: literature Met150Gln mutant of Achromobacter cycloclastes nitrite reductase (protein, UniProt P25006 39-378, looked up, variant M150Q)
Copper-containing nitrite …: AAGAAPVDISTLPRVKVDLVKPPFVHAHDQVAKTGPRVVEFTMTIEEKKLVIDREGTEIHAMTFNGSVPGPLMVVHENDYVELRLINPDTNTLLHNIDFHAATGALGGGALTQVNPGEETTLRFKATKPGVFVYHCAPEGMVPWHVTSGQNGAIMVLPRDGLKDEKGQPLTYDKIYYVGEQDFYVPKDEAGNYKKYETPGEAYEDAVKAMRTLTPTHIVFNGAVGALTGDHALTAAVGERVLVVHSQANRDTRPHLIGGHGDYVWATGKFRNPPDLDQETWLIPGGTAGAAFYTFRQPGVYAYVNHNLIEAFELGAAGHFKVTGEWNDDLMTSVVKPASM
Consider B1, for which the “electron transfer rate (literature)” value in series [4] is listed as “decreased below the detection limit”.

B2: wild-type Cu-containing nitrite reductase from Alcaligenes faecalis S-6 (protein)
chain: QGAVRKATAAEIAALPRQKVELVDPPFVHAHSQVAEGGPKVVEFTMVIEEKKIVIDDAGTEVHAMAFNGTVPGPLMVVHQDDYLELTLINPETNTLMHNIDFHAATGALGGGGLTEINPGEKTILRFKATKPGVFVYHCAPPGMVPWHVVSGMNGAIMVLPREGLHDGKGKALTYDKIYYVGEQDFYVPRDENGKYKKYEAPGDAYEDTVKVMRTLTPTHVVFNGAVGALTGDKAMTAAVGEKVLIVHSQANRDTRPHLIGGHGDYVWATGKFNTPPDVDQETWFIPGGAAGAAFYTFQQPGIYAYVNHNLIEAFELGAAAHFKVTGEWNDDLMTSVLAPSGT
For B2, the kcat^sat (oxidation of pseudoazurin, no external ligand) in the series with pseudoazurin, P04377 amounted to 416 s⁻¹. In addition, the “kcat^sat” value with pseudoazurin [5] stood at 416 ± 10 s⁻¹.
